Patent publication US20240287138A1, “CYCLIC PEPTIDES FOR INHIBITING TNF RECEPTOR 1 ACTIVITY” (Merck Sharp & Dohme LLC, priority 2023, published 2024)
Where two headings read alike, the source gives them in different places. Numbered stars: 1 amine (or outer) side, 2 acyl side, 3 side chain; on linkers, the order of the positions; unused ones are H or OH. Bridge positions count the residues as written; N and C are the ends. Square brackets hold non-standard residues; d marks the D form. Peptide text beside a SMILES is read from it. * marks the point of attachment. Trp(βS-Me,7-OMe) = COc1cccc2c([C@H](C)[C@H](N)C(=O)O)c[nH]c12; Trp(1-CH2COOH) = N[C@@H](Cc1cn(CC(=O)O)c2ccccc12)C(=O)O; Phe(4-SO2NH2) = N[C@@H](Cc1ccc(S(N)(=O)=O)cc1)C(=O)O; dPro(trans-4-NMe2) = CN(C)[C@@H]1CN[C@@H](C(=O)O)C1; Trp(7-CN) = N#Cc1cccc2c(C[C@H](N)C(=O)O)c[nH]c12; Trp(7-Cl) = N[C@@H](Cc1c[nH]c2c(Cl)cccc12)C(=O)O; X20 = O=C1NCc2ccc(C[C@H](N[*:1])C(=O)[*:2])cc21; Phe(3-CONH2) = NC(=O)c1cccc(C[C@H](N)C(=O)O)c1; Phe(4-CONH2) = NC(=O)c1ccc(C[C@H](N)C(=O)O)cc1; Phe(4-COOH) = N[C@@H](Cc1ccc(C(=O)O)cc1)C(=O)O; Trp(7-aza) = N[C@@H](Cc1c[nH]c2ncccc12)C(=O)O; dPro(trans-4-F) = O=C(O)[C@H]1C[C@H](F)CN1; dPro(4S-NH2) = N[C@@H]1CN[C@@H](C(=O)O)C1; Pip(5R-OH) = O=C(O)[C@@H]1CC[C@@H](O)CN1; X1 = O=C([C@@H]1CC[C@H](N[*:1])C1)[*:2]; NMeT = CN[C@H](C(=O)O)[C@@H](C)O; 4Pal = N[C@@H](Cc1ccncc1)C(=O)O; NMeE = CN[C@@H](CCC(=O)O)C(=O)O; dHyp = O=C(O)[C@H]1C[C@H](O)CN1; αMeS = C[C@](N)(CO)C(=O)O; Carboxymethyl = O=C(O)C*; Nle = CCCC[C@H](N)C(=O)O; Sar = CNCC(=O)O

Key:
[1] = molecular target: T1, human soluble TNFR1 (sTNFR1) (Homo sapiens, UniProt P19438); test: Human sTNFR1-peptide displacement assay (LanthaScreen Eu TR-FRET binding assay)
T1 construct: made in house; host or cells: Sf21 (baculovirus)
T1 sequence (P19438 with tags, fused parts or gaps): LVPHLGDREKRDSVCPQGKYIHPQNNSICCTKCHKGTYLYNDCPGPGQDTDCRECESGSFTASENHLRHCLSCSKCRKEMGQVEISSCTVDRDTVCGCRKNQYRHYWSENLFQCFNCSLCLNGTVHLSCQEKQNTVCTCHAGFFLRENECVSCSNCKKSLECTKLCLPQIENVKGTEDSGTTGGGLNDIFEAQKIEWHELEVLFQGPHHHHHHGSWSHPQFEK
How it was run: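 Readout is the 665/615 nm TR-FRET ratio (Eu anti-His donor, streptavidin-Alexa647 acceptor), normalized to DMSO and saturating displacer, fit by Morrison-based five-parameter logistic for Kd^app. His-tagged sTNFR1 (1-211) prebound to 100 nM biotinylated peptide SEQ ID NO.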

[2] = molecular target: T2, TNFα-induced NF-κB signal transduction pathway (TNFR1 signaling) in THP-1 cells (Homo sapiens, UniProt P19438); test: THP-1 Lucia NF-κB reporter cell assay, inhibition of TNFα-induced NF-κB signaling; assay type: cell-based; conditions: THP-1 NF-κB Lucia reporter cells, 10 ng/mL TNFα, 16-18 h, secreted luciferase; read-out: THP-1 IC50
T2 sequence (P19438 30-455): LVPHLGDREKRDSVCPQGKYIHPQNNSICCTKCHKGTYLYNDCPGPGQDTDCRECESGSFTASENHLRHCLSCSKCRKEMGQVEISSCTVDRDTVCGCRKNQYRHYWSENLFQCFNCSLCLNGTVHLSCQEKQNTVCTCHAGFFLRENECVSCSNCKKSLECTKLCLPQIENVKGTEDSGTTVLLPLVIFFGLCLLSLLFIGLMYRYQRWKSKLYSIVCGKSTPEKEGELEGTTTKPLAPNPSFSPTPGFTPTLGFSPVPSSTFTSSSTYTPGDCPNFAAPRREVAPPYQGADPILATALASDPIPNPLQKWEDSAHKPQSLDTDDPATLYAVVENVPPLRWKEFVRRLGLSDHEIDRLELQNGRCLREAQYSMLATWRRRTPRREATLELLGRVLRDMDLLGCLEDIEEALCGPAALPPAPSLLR
How it was run: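 Read-out: secreted Lucia luciferase luminescence (QUANTI-Luc) from supernatant after 16-18 h, 37 °C, 10 ng/mL rhTNFα. Peptide pretreatment 1 h at 37 °C; 20,000 cells/well, selection antibiotics omitted. IC50 via 4-parameter logistic model against min/max controls.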

[3] = displacement of biotinylated peptide SEQ ID NO. 1 from sTNFR1, 20 point titration, 5-parameter fit based on Morrison equation (tight binding), read-out: TR-FRET Kd^app

Row | SMILES | Kd [1] | IC50 [2] | Kd [1, 3]
1 | CCCC[C@@H]1NC(=O)[C@@H]2CC[C@@H](C2)NC(=O)[C@H]([C@@H](C)c2c[nH]c3c(OC)cccc23)NC(=O)CN(C)C(=O)[C@H](Cc2ccc(C(N)=O)cc2)NC(=O)[C@H](Cc2ccc(S(N)(=O)=O)cc2)NC(=O)[C@](C)(CO)NC(=O)[C@H](Cc2c[nH]c3c(C#N)cccc23)NC(=O)[C@H](Cc2ccc(C(=O)O)cc2)NC(=O)[C@H](CC(N)=O)NC(=O)[C@H]2C[C@H](N(C)C)CN2C(=O)[C@H](Cc2cn(CC(=O)O)c3ccccc23)NC(=O)[C@@H]2CC[C@@H](O)CN2C(=O)[C@H](Cc2ccncc2)NC1=O [SEQ ID NO. 2] (cyclo([4Pal][Pip(5R-OH)][Trp(1-CH2COOH)][dPro(trans-4-NMe2)]N[Phe(4-COOH)][Trp(7-CN)][αMeS][Phe(4-SO2NH2)][Phe(4-CONH2)][Sar][Trp(βS-Me,7-OMe)][X1][Nle])) | 0.07 nM | 0.5 nM | –
2 | CCCC[C@@H]1NC(=O)[C@@H]2CC[C@@H](C2)NC(=O)[C@H]([C@@H](C)c2c[nH]c3c(OC)cccc23)NC(=O)CN(C)C(=O)[C@H](Cc2ccc(OCC(=O)O)cc2)NC(=O)[C@H](Cc2ccc(S(N)(=O)=O)cc2)NC(=O)[C@](C)(CO)NC(=O)[C@H](Cc2c[nH]c3c(C#N)cccc23)NC(=O)[C@H](Cc2ccc(OCC(=O)O)cc2)NC(=O)[C@H](CC(N)=O)NC(=O)[C@H]2C[C@H](N)CN2C(=O)[C@H](Cc2cn(CC(=O)O)c3ccccc23)NC(=O)[C@@H]2CC[C@@H](O)CN2C(=O)[C@H](Cc2ccncc2)NC1=O [SEQ ID NO. 18] (cyclo([4Pal][Pip(5R-OH)][Trp(1-CH2COOH)][dPro(4S-NH2)]NY(Carboxymethyl)[Trp(7-CN)][αMeS][Phe(4-SO2NH2)]Y(Carboxymethyl)[Sar][Trp(βS-Me,7-OMe)][X1][Nle])) | – | 0.6 nM | 0.08 nM
3 | CCCC[C@@H]1NC(=O)[C@@H]2CC[C@@H](C2)NC(=O)[C@H]([C@@H](C)c2c[nH]c3c(OC)cccc23)NC(=O)CN(C)C(=O)[C@H](Cc2cccc(C(N)=O)c2)NC(=O)[C@H](Cc2ccc(C(N)=O)cc2)NC(=O)[C@](C)(CO)NC(=O)[C@H](Cc2c[nH]c3c(C#N)cccc23)NC(=O)[C@H](Cc2ccc(C(=O)O)cc2)NC(=O)[C@H](CC(N)=O)NC(=O)[C@H]2C[C@H](F)CN2C(=O)[C@H](Cc2c[nH]c3ccccc23)NC(=O)[C@@H]2CC[C@@H](O)CN2C(=O)[C@H](Cc2ccncc2)NC1=O [SEQ ID NO. 21] (cyclo([4Pal][Pip(5R-OH)]W[dPro(trans-4-F)]N[Phe(4-COOH)][Trp(7-CN)][αMeS][Phe(4-CONH2)][Phe(3-CONH2)][Sar][Trp(βS-Me,7-OMe)][X1][Nle])) | 0.04 nM | 0.9 nM | –
4 | CCCC[C@@H]1NC(=O)[C@@H]2CC[C@@H](C2)NC(=O)[C@H]([C@@H](C)c2c[nH]c3c(OC)cccc23)NC(=O)CN(C)C(=O)[C@H](Cc2ccc(C(N)=O)cc2)NC(=O)[C@H](Cc2ccc(C(N)=O)cc2)NC(=O)[C@](C)(CO)NC(=O)[C@H](Cc2c[nH]c3c(C#N)cccc23)NC(=O)[C@H](Cc2ccc3c(c2)C(=O)NC3)NC(=O)[C@H](CC(N)=O)NC(=O)[C@H]2C[C@H](OCC(=O)O)CN2C(=O)[C@H](Cc2cn(CC(=O)O)c3ccccc23)NC(=O)[C@@H]2CC[C@@H](O)CN2C(=O)[C@H](Cc2ccncc2)NC1=O [SEQ ID NO. 22] (cyclo([4Pal][Pip(5R-OH)][Trp(1-CH2COOH)][dHyp](Carboxymethyl)N[X20][Trp(7-CN)][αMeS][Phe(4-CONH2)][Phe(4-CONH2)][Sar][Trp(βS-Me,7-OMe)][X1][Nle])) | – | 0.6 nM | 0.08 nM
5 | CCCC[C@@H]1NC(=O)CSC[C@@H](C(N)=O)NC(=O)[C@H]([C@@H](C)c2c[nH]c3c(OC)cccc23)NC(=O)CN(C)C(=O)[C@H](Cc2ccc(O)cc2)NC(=O)[C@H](Cc2ccc(C(=O)O)cc2)NC(=O)[C@](C)(CO)NC(=O)[C@H](Cc2c[nH]c3c(Cl)cccc23)NC(=O)[C@H](Cc2ccncc2)NC(=O)[C@H](CC(N)=O)NC(=O)[C@H](CCC(=O)O)N(C)C(=O)[C@H](Cc2c[nH]c3ncccc23)NC(=O)[C@H]([C@@H](C)O)N(C)C(=O)[C@H](Cc2ccncc2)NC1=O [SEQ ID NO. 29] ({CH2CO}-[Nle][4Pal][NMeT][Trp(7-aza)][NMeE]N[4Pal][Trp(7-Cl)][αMeS][Phe(4-COOH)]Y[Sar][Trp(βS-Me,7-OMe)]C-NH2; thioether N-14) | 0.65 nM | 3.3 nM | –
